Data: US20230212549A1, “COMPOUNDS COMPRISING A […] LIGAND AND USE THEREOF” (priority 2021, published 2023)
Numbered stars: 1 amine (or outer) side, 2 acyl side, 3 side chain; on linkers, the order of the positions; unused ones are H or OH. Bridge positions count the residues as written; N and C are the ends. Square brackets hold non-standard residues; d marks the D form. Peptide text beside a SMILES is read from it. * marks the point of attachment. ξ: configuration not given here. X13 = O=C(O)CN1CCN(CC(=O)O)CCN(CC(=O)N2CCN(Cc3cc(C[*:1])cc(C[*:2])c3)CC2)CCN(CC(=O)O)CC1; X7 = O=C(CCP(=O)(O)CN1CCN(CP(=O)(O)CO)CCN(CP(=O)(O)CO)CC1)NCCSCc1cc(C[*:1])cc(C[*:2])c1; X11 = O=C(O)CN1CCN(CC(=O)O)CCN(C(CCC(=O)NCCSCc2cc(C[*:1])cc(C[*:2])c2)C(=O)O)CC1; X32 = O=C(O)CN1CCN(CC(=O)O)CCN(CC(=O)NCc2cc(C[*:1])cc(C[*:2])c2)CCN(CC(=O)O)CC1; Pro(trans-4-F) = O=C(O)[C@@H]1C[C@@H](F)CN1; Pro(4,4-F2) = O=C(O)[C@@H]1CC(F)(F)CN1; mXylylene = c1cc(C[*:1])cc(C[*:2])c1; Hyp = O=C(O)[C@@H]1C[C@@H](O)CN1; Hexanoyl = CCCCCC(=O)*; CO = O=C([*:1])[*:2]; ξC = NC(CS)C(=O)O; NHBu = CCCCN*

What was measured:
[1] = biological target: T1, FAP-expressing human WI-38 fibroblasts (Homo sapiens, UniProt Q12884); assay: Competitive FACS binding assay
T1 construct: FAP-expressing human WI-38 fibroblasts (ECACC) were cultured in EMEM; host or cells: WI-38 human fibroblasts
Procedure: Cells were analyzed in an Attune NxT flow cytometer. […] […].
Cells were analyzed in an Attune NxT flow cytometer. […]

in vivo = conditions: female, athymic nude, mouse, iv, ^68Ga-labeled, PET/CT; for tissue uptake at 0.25 h: 0.25 h post tracer injection; for tissue uptake at 1 h: 1 h post tracer injection; for tissue uptake at 3 h: 3 h post tracer injection
Human recombinant FAP = Human recombinant FAP (Homo sapiens, UniProt Q12884); assay: FRET-based FAP protease activity assay; format: biochemical; set-up: purchased R&D systems 3715-SE
[2] = pIC50 Category (activity), Recombinant human FAP
[3] = pIC50 Category (Activity), FRET-based FAP protease activity assay, recombinant human FAP, 37° C.
[4] = pIC50 Category (Activity), FRET-peptide substrate, 37° C.

T1 sequence (Q12884 whole entry): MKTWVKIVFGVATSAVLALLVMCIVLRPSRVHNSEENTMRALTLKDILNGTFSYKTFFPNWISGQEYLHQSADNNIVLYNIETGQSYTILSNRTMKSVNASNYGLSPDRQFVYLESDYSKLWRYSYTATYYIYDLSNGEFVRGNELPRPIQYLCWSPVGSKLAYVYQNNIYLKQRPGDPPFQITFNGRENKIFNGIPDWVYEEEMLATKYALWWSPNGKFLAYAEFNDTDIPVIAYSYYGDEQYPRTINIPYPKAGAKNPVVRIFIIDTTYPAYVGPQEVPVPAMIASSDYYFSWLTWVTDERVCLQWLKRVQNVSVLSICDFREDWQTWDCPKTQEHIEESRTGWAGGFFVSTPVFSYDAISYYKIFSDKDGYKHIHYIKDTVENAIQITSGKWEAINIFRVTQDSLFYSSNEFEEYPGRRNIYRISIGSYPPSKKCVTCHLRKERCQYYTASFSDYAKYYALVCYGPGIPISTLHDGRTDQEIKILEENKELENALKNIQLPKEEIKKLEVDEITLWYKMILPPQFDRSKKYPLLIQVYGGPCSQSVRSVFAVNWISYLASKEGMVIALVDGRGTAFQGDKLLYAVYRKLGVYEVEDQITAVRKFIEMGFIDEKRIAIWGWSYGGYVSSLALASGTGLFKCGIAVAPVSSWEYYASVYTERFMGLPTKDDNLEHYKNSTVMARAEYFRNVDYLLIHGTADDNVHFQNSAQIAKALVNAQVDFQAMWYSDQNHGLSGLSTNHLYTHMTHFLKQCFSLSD
Chain of Human recombinant FAP (Q12884 whole entry): as above

Row | IC50 [1] | IC50 (Human recombinant FAP; [3]) | IC50 (Human recombinant FAP; [4]) | Structure (SMILES) | also measured
1 | 10 to 79.4 nM | – | 10 to 79.4 nM | C=CCCC(=O)N[C@H]1CSCc2cc(CSCCNC(=O)CN3CCN(CC(=O)O)CCN(CC(=O)O)CCN(CC(=O)O)CC3)cc(c2)CSC[C@@H](C(=O)O)NC(=O)[C@H](Cc2ccccc2)NC(=O)[C@H](CCC(N)=O)NC(=O)[C@H]([C@@H](C)O)NC(=O)[C@@H]2CCCN2C(=O)[C@@H]2CCCN2C1=O [3BP-3914, Peet-[Cys(tMeBn(DOTA-AET))-Pro-Pro-Thr-Gln-Phe-Cys]-OH] | –
2 | 10 to 79.4 nM | 10 to 79.4 nM | – | CCCCCC(=O)N[C@H]1CSCc2cccc(c2)CSC[C@@H](C(N)=O)NC(=O)[C@H](Cc2ccccc2)NC(=O)[C@H](CCC(=O)O)NC(=O)[C@H]([C@@H](C)O)NC(=O)[C@@H]2C[C@@H](O)CN2C(=O)[C@@H]2CCCN2C1=O [3BP-3366, Hex-[Cys(3MeBn)-Pro-Hyp-Thr-Glu-Phe-Cys]-NH2] (Hexanoyl-CP[Hyp]TEFC-NH2; linker 1-7 via mXylylene) | –
3 | 10 to 79.4 nM | – | 100 to 794 nM | C#CCCC(=O)N[C@H]1CSCc2cc(CSCCNC(=O)CN3CCN(CC(=O)O)CCN(CC(=O)O)CCN(CC(=O)O)CC3)cc(c2)CSC[C@@H](C(=O)O)NC(=O)[C@H](Cc2ccccc2)NC(=O)[C@H](CCC(N)=O)NC(=O)[C@H]([C@@H](C)O)NC(=O)[C@@H]2CCCN2C(=O)[C@@H]2CCCN2C1=O [3BP-3912, Pyn-[Cys(tMeBn(DOTA-AET))-Pro-Pro-Thr-Gln-Phe-Cys]-OH] | –
4 | 10 to 79.4 nM | – | 10 to 79.4 nM | CCCC[C@H](NC(=O)CCC(=O)NCCCOCCOCCOCCCNC(=O)CC[C@H](NC(=O)C(CNCCN)CNCCN)C(=O)O)C(=O)N[C@H]1CSCc2cccc(c2)CSC[C@@H](C(=O)O)NC(=O)[C@H](Cc2ccccc2)NC(=O)[C@H](CCC(N)=O)NC(=O)[C@H]([C@@H](C)O)NC(=O)[C@@H]2CCCN2C(=O)[C@@H]2CCCN2C1=O [3BP-4245, N4Ac-gGlu-Ttds-Nle-[Cys-(3MeBn)-Pro-Pro-Thr-Gln-Phe-Cys]-OH] | –
5 | > 1000 nM | – | > 1000 nM | CCCC[C@H](NC(=O)[C@H](CCC(=O)NC[C@H](O)[C@@H](O)[C@H](O)[C@H](O)CO)NC(=O)CCC(=O)NCCCOCCOCCOCCCNC(=O)C(CNCCN)CNCCN)C(=O)N[C@H]1CSCc2cccc(c2)CSC[C@@H](C(=O)O)NC(=O)[C@H](Cc2ccccc2)NC(=O)[C@H](CCC(N)=O)NC(=O)[C@H]([C@@H](C)O)NC(=O)[C@@H]2CCCN2C(=O)[C@@H]2CCCN2C1=O [3BP-4248, N4Ac-Ttds-Glu(AGLU′)-Nle-[Cys-(3MeBn)-Pro-Pro-Thr-Gln-Phe-Cys]-OH] | –
6 | 10 to 79.4 nM | 10 to 79.4 nM | – | CCCCCC(=O)N[C@H]1CSCc2cc(CNC(=O)CN3CCN(CC(=O)O)CCN(CC(=O)O)CCN(CC(=O)O)CC3)cc(c2)CSC[C@@H](C(=O)N[C@@H](CC(=O)O)C(N)=O)NC(=O)[C@H](Cc2ccccc2)NC(=O)[C@H](CCC(N)=O)NC(=O)[C@H]([C@@H](C)O)NC(=O)[C@@H]2CCCN2C(=O)[C@@H]2CCCN2C1=O [3BP-3556, Hex-[Cys(tMeBn(DOTA-NH))-Pro-Pro-Thr-Gln-Phe-Cys]-Asp-NH2] (Hexanoyl-CPPTQFCD-NH2; linker 1-7 via X32) | –

Second part, the molecule before the results:

Row | Structure (SMILES) | IC50 [1] | IC50 (Human recombinant FAP; [3]) | IC50 (Human recombinant FAP; [4]) | also measured
7 | CCCCNC(=O)N[C@H]1CSCc2cc(CSCCNC(=O)CCC(C(=O)O)N3CCN(CC(=O)O)CCN(CC(=O)O)CC3)cc(c2)CSCC(C(=O)O)NC(=O)[C@H](Cc2ccccc2)NC(=O)[C@H](CCC(=O)O)NC(=O)[C@H]([C@@H](C)O)NC(=O)[C@@H]2CCCN2C(=O)[C@@H]2CCCN2C1=O (stereo partly drawn) [3BP-4724, nBu-CAyl-[Cys(tMeBn(NODAGA-AET))-Pro-Pro-Thr-Glu-Phe-Cys]-OH] ({NHBu-CO}-CPPTEF[ξC]-OH; linker 1-7 via X11) | < 10 nM | – | – | tissue uptake at 0.25 h (in vivo; blood pool surrogate (BPS), uptake BPS 0.25 h, BPS (blood pool surrogate)): 2.17 %ID/g; tissue uptake at 1 h (in vivo; blood pool surrogate (BPS), uptake BPS 1 h, BPS (blood pool surrogate)): 1.04 %ID/g; tissue uptake at 3 h (in vivo; blood pool surrogate (BPS), uptake BPS 3 h, BPS (blood pool surrogate)): 0.49 %ID/g; tissue uptake at 0.25 h (in vivo; kidneys, uptake Kidneys 0.25 h): 4.28 %ID/g; tissue uptake at 1 h (in vivo; kidneys, uptake Kidneys 1 h): 1.87 %ID/g; tissue uptake at 3 h (in vivo; kidneys, uptake Kidneys 3 h): 0.86 %ID/g; tissue uptake at 0.25 h (in vivo; tumor, uptake Tumor 0.25 h, HEK-FAP tumor): 3.87 %ID/g; tissue uptake at 1 h (in vivo; tumor, uptake Tumor 1 h, HEK-FAP tumor): 4.37 %ID/g; tissue uptake at 3 h (in vivo; tumor, uptake Tumor 3 h, HEK-FAP tumor): 4.46 %ID/g; IC50 (Human recombinant FAP; [2]): 10 to 79.4 nM
8 | CSCC[C@H](NC(C)=O)C(=O)N[C@@H]1CSCc2cccc(c2)CSC[C@@H](C(=O)N[C@@H](CC(=O)O)C(=O)N[C@@H](Cc2c[nH]cn2)C(=O)N[C@@H](Cc2ccccc2)C(=O)N[C@@H](CCCNC(=N)N)C(=O)N[C@@H](CC(=O)O)C(N)=O)NC(=O)[C@H](Cc2ccccc2)NC(=O)[C@H](CCC(=O)O)NC(=O)[C@H]([C@@H](C)O)NC(=O)[C@@H]2CCCN2C(=O)[C@@H]2CCCN2C1=O [3BP-3175, Ac-Met-[cys(3MeBn)-Pro-Pro-Thr-Glu-Phe-Cys]-Asp-His-Phe-Arg-Asp-NH2] (Ac-M[dC]PPTEFCDHFRD-NH2; linker 2-8 via mXylylene) | < 10 nM | < 10 nM | – | –
9 | CCCCCC(=O)N[C@H]1CSCc2cc(cc(CN3CCN(C(=O)CN4CCN(CC(=O)O)CCN(CC(=O)O)CCN(CC(=O)O)CC4)CC3)c2)CSC[C@@H](C(=O)N[C@@H](CC(=O)O)C(N)=O)NC(=O)[C@H]([C@@H](C)O)NC(=O)[C@@H]2CCCN2C(=O)[C@H](Cc2ccccc2)NC(=O)[C@H](CCC(N)=O)NC(=O)[C@@H]2CCCN2C1=O [3BP-3857, Hex-[Cys(tMeBn(DOTA-PP))-Pro-Gln-Phe-Pro-Thr-Cys]-Asp-NH2] (Hexanoyl-CPQFPTCD-NH2; linker 1-7 via X13) | 100 to 794 nM | 100 to 794 nM | – | –
10 | CCCCCC(=O)N[C@H]1CSCc2cc(CSCCNC(=O)COc3ccc4nc3CN(CC(=O)O)CCN(CC(=O)O)CCN(CC(=O)O)C4)cc(c2)CSCC(C(=O)O)NC(=O)[C@H](Cc2ccccc2)NC(=O)[C@H](CCC(N)=O)NC(=O)[C@H]([C@@H](C)O)NC(=O)[C@@H]2CCCN2C(=O)[C@@H]2CCCN2C1=O (stereo partly drawn) [3BP-5273, Hex-[Cys(tMeBn(AcPCTA-AET))-Pro-Pro-Thr-Gln-Phe-Cys]-OH] | < 10 nM | – | – | IC50 (Human recombinant FAP; [2]): < 10 nM
11 | CCCCCC(=O)N[C@H]1CSCc2cccc(c2)CSC[C@@H](C(N)=O)NC(=O)[C@H](Cc2ccccc2)NC(=O)[C@H](CCC(=O)O)NC(=O)[C@H]([C@@H](C)O)NC(=O)[C@@H]2C[C@@H](F)CN2C(=O)[C@@H]2CCCN2C1=O [3BP-3352, Hex-[Cys(3MeBn)-Pro-4Tfp-Thr-Glu-Phe-Cys]-NH2] (Hexanoyl-CP[Pro(trans-4-F)]TEFC-NH2; linker 1-7 via mXylylene) | 100 to 794 nM | 10 to 79.4 nM | – | –
12 | CCCCCC(=O)N[C@H]1CSCc2cc(CSCCNC(=O)CCOCCOCCOCCOCCOCCOCCNC(=O)CCc3ccc(O)c(CN(CCN(CC(=O)O)Cc4cc(CCC(=O)O)ccc4O)CC(=O)O)c3)cc(c2)CSC[C@@H](C(=O)O)NC(=O)[C@H](Cc2ccccc2)NC(=O)[C@H](CCC(N)=O)NC(=O)[C@H]([C@@H](C)O)NC(=O)[C@@H]2CCCN2C(=O)[C@@H]2CCCN2C1=O [3BP-4383, Hex-[Cys(tMeBn(HBED-PEG6-AET))-Pro-Pro-Thr-Gln-Phe-Cys]-OH] | 10 to 79.4 nM | – | 10 to 79.4 nM | –
13 | CCCCNC(=O)N[C@H]1CSCc2cc(CSCCNC(=O)CCP(=O)(O)CN3CCN(CP(=O)(O)CO)CCN(CP(=O)(O)CO)CC3)cc(c2)CSC[C@@H](C(=O)O)NC(=O)[C@H](Cc2ccccc2)NC(=O)[C@H](CCC(N)=O)NC(=O)[C@H]([C@@H](C)O)NC(=O)[C@@H]2CCCN2C(=O)[C@@H]2CCCN2C1=O [3BP-5260, nBu-CAyl-[C(tMeBn(GaNOPO-AET))-PPTQFC]-OH] | – | – | – | pIC50 Category (FACS) ([1]; FAP-expressing human WI-38 fibroblasts): A (pIC50 category A stands for pIC50 values >8.0); pIC50 Category (activity) (Human recombinant FAP; Recombinant human FAP): A (pIC50 category A stands for pIC50 values >8.0)
14 | CCCCCC(=O)N[C@H]1CSCc2cccc(c2)CSC[C@@H](C(N)=O)NC(=O)[C@H](Cc2ccccc2)NC(=O)[C@H](CCC(=O)O)NC(=O)[C@H]([C@@H](C)O)NC(=O)[C@@H]2CC(F)(F)CN2C(=O)[C@@H]2CCCN2C1=O [3BP-3365, Hex-[Cys(3MeBn)-Pro-4Dfp-Thr-Glu-Phe-Cys]-NH2] (Hexanoyl-CP[Pro(4,4-F2)]TEFC-NH2; linker 1-7 via mXylylene) | > 1000 nM | 100 to 794 nM | – | –
15 | CCCCCC(=O)N[C@H]1CSCc2cc(CSCCNC(=O)CCP(=O)(O)CN3CCN(CP(=O)(O)CO)CCN(CP(=O)(O)CO)CC3)cc(c2)CSCC(C(=O)O)NC(=O)[C@H](Cc2ccccc2)NC(=O)[C@H](CCC(=O)O)NC(=O)[C@H]([C@@H](C)O)NC(=O)[C@@H]2CCCN2C(=O)[C@@H]2CCCN2C1=O (stereo partly drawn) [3BP-4818, Hex-[Cys(tMeBn(NOPO-AET))-Pro-Pro-Thr-Glu-Phe-Cys]-OH] (Hexanoyl-CPPTEF[ξC]-OH; linker 1-7 via X7) | 10 to 79.4 nM | – | – | IC50 (Human recombinant FAP; [2]): 10 to 79.4 nM
